According to patent US6413931B1, “Peptide inhibitor of fibrinogen blood clotting” (The Texas A&M University System, priority 1999, dated 2002):

Columns and labels:
[1] = target: T1, Human Fibrinogen/Bovine Thrombin (Homo sapiens, UniProt P02671+P02675+P02679); experiment: Clotting assay (fibrinogen plus thrombin, time to gel-like clot); assay type: biochemical; settings: for Human Fibrinogen/Bovine Thrombin Clotting Time: 1 mg/ml fibrinogen, 1 unit/ml thrombin
T1 construct: purchased Chromogenix (Sweden)
T1 sequence (P02671 20-629 limits assumed): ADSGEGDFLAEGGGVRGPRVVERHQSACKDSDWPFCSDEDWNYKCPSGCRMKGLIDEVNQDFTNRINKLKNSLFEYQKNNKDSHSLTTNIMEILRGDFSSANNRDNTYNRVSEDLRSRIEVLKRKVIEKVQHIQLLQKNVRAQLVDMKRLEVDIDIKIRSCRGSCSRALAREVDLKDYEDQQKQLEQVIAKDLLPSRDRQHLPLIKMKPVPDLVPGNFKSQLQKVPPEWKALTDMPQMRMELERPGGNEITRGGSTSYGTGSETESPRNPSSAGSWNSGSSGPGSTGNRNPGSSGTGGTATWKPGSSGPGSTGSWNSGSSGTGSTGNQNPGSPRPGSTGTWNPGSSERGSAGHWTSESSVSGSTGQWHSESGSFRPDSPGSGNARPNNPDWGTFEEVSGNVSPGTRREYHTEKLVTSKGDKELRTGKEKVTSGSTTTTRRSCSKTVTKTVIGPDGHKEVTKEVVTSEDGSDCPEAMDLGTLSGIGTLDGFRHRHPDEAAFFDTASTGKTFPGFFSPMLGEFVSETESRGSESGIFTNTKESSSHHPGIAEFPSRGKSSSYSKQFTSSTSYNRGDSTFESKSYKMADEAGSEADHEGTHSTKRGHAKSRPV
T1 sequence (P02675 31-491): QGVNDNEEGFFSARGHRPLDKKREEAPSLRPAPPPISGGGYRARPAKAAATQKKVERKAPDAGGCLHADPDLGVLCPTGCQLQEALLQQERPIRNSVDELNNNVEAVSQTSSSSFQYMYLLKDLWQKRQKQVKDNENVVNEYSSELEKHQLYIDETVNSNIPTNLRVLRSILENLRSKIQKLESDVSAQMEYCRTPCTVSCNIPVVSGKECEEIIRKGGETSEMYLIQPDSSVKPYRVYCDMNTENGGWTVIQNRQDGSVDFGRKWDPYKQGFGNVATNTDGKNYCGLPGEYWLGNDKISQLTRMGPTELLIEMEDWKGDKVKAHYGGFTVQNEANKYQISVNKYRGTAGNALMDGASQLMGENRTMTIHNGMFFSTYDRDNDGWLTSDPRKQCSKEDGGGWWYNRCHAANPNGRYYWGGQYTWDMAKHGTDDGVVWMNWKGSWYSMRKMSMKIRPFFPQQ
T1 sequence (P02679 27-433 limits assumed): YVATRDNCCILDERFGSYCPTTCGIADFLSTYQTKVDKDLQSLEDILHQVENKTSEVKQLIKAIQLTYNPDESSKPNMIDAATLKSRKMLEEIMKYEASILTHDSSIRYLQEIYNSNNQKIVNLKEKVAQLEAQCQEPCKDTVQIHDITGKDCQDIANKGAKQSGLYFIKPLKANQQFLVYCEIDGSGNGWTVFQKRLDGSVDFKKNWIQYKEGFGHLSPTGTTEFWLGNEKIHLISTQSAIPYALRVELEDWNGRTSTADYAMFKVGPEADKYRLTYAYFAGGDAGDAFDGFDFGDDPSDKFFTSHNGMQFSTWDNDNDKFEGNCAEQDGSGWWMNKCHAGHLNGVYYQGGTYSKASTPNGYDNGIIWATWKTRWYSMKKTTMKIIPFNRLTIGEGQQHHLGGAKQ
Method: These tests were conducted by incubating 1 mg of human fibrinogen with desired peptides in 20 mM Tris-HCl, 150 mM NaCl, pH 7.5 in the presence or absence of Zn^2+ for at least 30 min followed by adding 1 unit of bovine thrombin. The total volume of each reaction was 1 ml and the reaction was observed by counting the time for allowing the solution to form a gel like clot in the test tube.
A four amino acid long peptide, G-P-R-P, binds to the γ chain of fibrinogen D fragment and prolongs the clotting time in a closed system containing fibrinogen and thrombin (Laudano, 1978; Laudano, 1980).

fibrinogen D fragments = target: T2, fibrinogen D fragments (Homo sapiens, UniProt P02671+P02675+P02679, DEL434-453); experiment: Inhibition binding assay: competition with MBP-MD4 for binding to fibrinogen D fragments
T2 construct: Fibrinogen D and E fragment were purchased from Calbiochem; purchased Calbiochem (La Jolla, Calif.)
T2 sequence (P02671 130-216 limits assumed): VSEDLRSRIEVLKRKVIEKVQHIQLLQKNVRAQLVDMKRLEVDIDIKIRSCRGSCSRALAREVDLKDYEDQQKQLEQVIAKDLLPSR
T2 sequence (P02675 164-491 limits assumed): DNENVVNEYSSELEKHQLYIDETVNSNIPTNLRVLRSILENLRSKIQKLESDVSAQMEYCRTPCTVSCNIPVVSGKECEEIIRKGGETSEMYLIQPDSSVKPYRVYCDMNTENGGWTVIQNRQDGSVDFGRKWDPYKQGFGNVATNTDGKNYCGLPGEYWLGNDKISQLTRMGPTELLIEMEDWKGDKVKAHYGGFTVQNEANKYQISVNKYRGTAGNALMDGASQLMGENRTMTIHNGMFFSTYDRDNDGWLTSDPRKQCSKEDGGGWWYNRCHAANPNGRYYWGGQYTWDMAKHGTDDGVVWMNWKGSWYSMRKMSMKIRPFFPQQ
T2 sequence (P02679 112-433 limits assumed): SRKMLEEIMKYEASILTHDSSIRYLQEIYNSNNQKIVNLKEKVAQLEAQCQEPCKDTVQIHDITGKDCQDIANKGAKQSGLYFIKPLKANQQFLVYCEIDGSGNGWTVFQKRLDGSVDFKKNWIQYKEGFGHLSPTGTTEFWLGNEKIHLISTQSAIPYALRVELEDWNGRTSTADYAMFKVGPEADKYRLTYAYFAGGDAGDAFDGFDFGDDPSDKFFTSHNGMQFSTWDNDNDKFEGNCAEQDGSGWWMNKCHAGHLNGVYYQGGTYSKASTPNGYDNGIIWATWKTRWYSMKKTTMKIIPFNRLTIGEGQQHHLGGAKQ
Method: FIG. 8. Competitive binding of MD4 peptide in the interaction of MBP-MD4 to fibrinogen D fragments.
The protocol was based on the enzyme-linked immunosorbant binding assay as described above. However, the inhibitors were mixed with biotin labeled protein and allowed to bind to coated molecules in microtiter wells and incubated for 1 h at room temperature.
To measure the binding affinity of MD4 peptide to fibrinogen D fragments, fluorescence polarization experiments were carried out by incubating fluorescein labeled MD4 peptide with increasing concentration of fibrinogen D fragments and observing the change of polarization. The binding affinity of isolated MD4 peptide to fibrinogen D fragments in the presence of 15 uM ZnCl2 was saturable and the apparent dissociation constant, KD, was (8.4±1.6)×10^−8 M (FIG. 7). Competitive binding to D fragment was compared for a four amino acid peptide, G-P-R-P which is known to bind to fibrinogen γ chain (Pratt, 1997) and to prevent fibrinogen from forming fibrin (Laudano, 1978; Laudano, 1980), reduced and alkylated MD4, unlabeled MD4 peptide, and MBP-MD4. […] MD4 peptide binds to fibrinogen α and β chains in Western ligand binding assays whereas G-P-R-P peptide binds to the γ chain of fibrinogen, therefore, both peptides bound to different sites in D fragment.

fibrinogen D fragment = target: T3, fibrinogen D fragment (Homo sapiens, UniProt P02671+P02675+P02679, DEL434-453); settings: Laudano, 1978; read-out: reported binding affinity KD to fibrinogen D fragment; cited from earlier work
T3 construct: G-P-R-P peptide to fibrinogen D fragment
T3 sequence (P02671 130-216 limits assumed): T2 sequence (P02671 130-216 limits assumed)
T3 sequence (P02675 164-491 limits assumed): T2 sequence (P02675 164-491 limits assumed)
T3 sequence (P02679 112-433 limits assumed): T2 sequence (P02679 112-433 limits assumed)

Human Fibrinogen/Bovine Thrombin Clotting Time ([1]; 1 mM EDTA) [min]	delay of clot formation ([1]; 100 uM peptide, fibrinogen and thrombin, 15 uM ZnCl2) [min]	Human Fibrinogen/Bovine Thrombin Clotting Time ([1]; peptide 0.1 mM, 20 mM Tris, 150 mM NaCl, 15 μM ZnCl2, pH 7.4) [min]	Compound	competition with MBP-MD4 for binding to fibrinogen D fragments (fibrinogen D fragments)	Kd (fibrinogen D fragment) [µM]
12			O=C(O)CN(CCN(CC(=O)O)CC(=O)O)CC(=O)O [EDTA]		
	10	10	G-P-R-P	Neither G-P-R-P peptide, nor reduced and alkylated MD4 peptide could inhibit	17
